Literature values in patent publication US20180263245A1, “WATER-BASED DISINFECTANT” (priority 2015, published 2018).

Legend:
[1] = EPA
bacteria = conditions: without the Cu π-complex

Q: With `CCCCCCCCCCCC[N+](C)(C)Cc1ccccc1.[Cl-]` [C12 Quaternary Ammonium Chloride, Dodecyl Dimethyl Benzyl Ammonium Chloride] as the molecule, how does the genetic toxicity [1] read?
A: The genetic toxicity was “does not believe it is a genetic toxicant”.

Q: And the reproductive risks [1]?
A: The reproductive risks was “does not believe it poses unacceptable reproductive risks”.

Q: What about the tumors [1] of the same molecule?
A: The tumors was “negative for introduction of tumors”.

Q: What about the “bacterial reduction versus FDA minimum performance standards” value (bacteria) of the same molecule?
A: The value was “exceeded the FDA-indicated minimum performance standards”.
